Experimental findings from patent US5866576A, “Epoxide-containing compounds” (Cell Therapeutics, Inc., priority 1997, dated 1999) are described below.

pIC50: −log10 of the molar value. “Also recorded” adds a separate entry of the source. Bounds are passed on as bounds.

In data set [1] the test system is thymocytes. The data set can be described thus: murine thymocyte proliferation assay co-stimulated by ConA and IL-2 (FIGS. 7A-7E). The format is cell-based, Balb/C mice. Conditions: Mus musculus. An excerpt:
This example illustrates dose response curves used to generate 50% inhibition concentrations (IC50) for inventive compounds nos. 1410, 1439, 1541, 1553, 1553S, 1560, 1565, 2548R, 2548S and 2562 in a murine thymocyte proliferation assay, co-stimulated by Concanavalin A (ConA) and interleukin-2 alpha (IL-2). ConA, used to activate the T-cell receptor (TCR), along with IL-2 co-stimulation, induces T-cell proliferation and differentiation. Thymuses, obtained from normal, female Balb/C mice, were dissociated and plated into 96-well plates at a density of 2×10^5 cells/well. ConA (0.25 mg/ml) and IL-2 (15 U/ml) were added to the wells. The cells were incubated for 4 days at 37° C. On day 4, the cells were pulsed with tritiated thymidine and incubated for an additional 4 hours. The amount of tritiated thymidine incorporated by the harvested cells was determined in a liquid scintillation counter. Doses of inventive compounds (shown in FIGS. 7A-7E) were added two hours prior to ConA and IL-2 activation. Background counts were less than 200 cpm. Results obtained, illustrate the ability of the inventive compounds to inhibit thymocyte proliferation and activation. In FIG. 7A, inventive compounds nos. […] FIG. 7B presents additional data for compound no. 1410 and 1553S in this assay. […] FIG. 7C reports assay results for inventive compounds nos. 1439, 1541, 1560 and 1565. […] FIGS. 7D and 7E illustrate assay results for inventive compounds nos. 1541, 1553, 1560 and 1565 (FIG. 7D) and 2562, […] (FIG. 7E). As is true of other inventive compounds tested, all these compounds represented in FIGS. 7D and 7E inhibit thymocyte proliferation. […] 1541, 1553, 1560, 1565, 2562, 2548R and 2548S, respectively.

In data set [2] the test system is lymph node cells. The data set can be described thus: ovalbumin-induced proliferation in murine lymph cells (FIG. 13). It counts as cell-based, Balb/C mice. As to conditions: Mus musculus, OVA 200 μg/ml. An excerpt:
This example illustrates effects of the inventive compounds on ovalbumin-induced proliferation in murine lymph cells. Lymphnode cells contain a mixture of lymphoid cells: T-cells, B-cells and macrophages. Although proliferating cells in this assay are T-cells, the response obtained depends on type of antigen-presenting cell (e.g., macrophages) as well as elaboration of various immunoregulatory cytokines. Thus, this assay serves as a good model for T-cell mediated responses and as a valuable screening tool in identifying compounds useful in immunosuppressive therapeutic applications.
Murine T-cells proliferate in vitro in response to a soluble protein antigen if first primed with a corresponding antigen in vivo. This in vivo priming usually involves emulsifying the antigen in complete Freunds adjuvant and injecting this preparation into an appropriate site on a mouse. In this assay the antigen employed was chicken ovalbumin(OVA). Following emulsification in Freund's complete adjuvant, 50 μg of OVA were injected into both hind footpads of adult Balb/C mice. Fourteen days later the draining lymph nodes(popliteal) were removed and a single cell suspension was prepared in RPMI-1640 (10%FCS) medium. Two hundred thousand lymph node cells are then plated into wells of flat-bottom 96-well plates. Inventive compouds nos. 1410, 1553 (racemic), 1553(S), 1560 and 1565 were added to appropriate wells at various concentrations. OVA, at a final concentration of 200 μg/ml, was added to appropriate wells. Positive and negative controls were established on each plate, all assay variables being set up in quadruplicate.
The plates were incubated in a humidified, 5% CO2 incubator for 5 days. On the fifth day, 1 μCi of tritiated thymidine was added to each well and the plates were incubated for an additional 4 hours. The plates were harvested and the incorporation of 3H-TdR was determined in a liquid scintillation counter. The CPM data was then used to calculate experimental IC50 values for the compounds tested. Again, IC50 is defined as that concentration of compound resulting in 50% inhibition of 3H-TdR incorporation of the positive control.

Data set [3] has as its system thymocytes. Nature of the data set: IL-2 (ConA co-stimulated) induced proliferation of thymocytes. The format is cell-based, mice. As to conditions: Mus musculus, Thymocyte, 96 h; Table II; ConA 0.25 ug/ml / IL2 20 ng/ml, 4 days. Here is the method:
This example illustrates the effects of inventive compounds nos. 1105, 1114, 1413, 1439, 1594, 2518, 2548R, 2548S, 2562 and 3503 as effective inhibitors of IL-2 induced proliferation of thymocytes. Single cell suspensions of thymus gland cells obtained from 4-6 week old mice were prepared. Two-hundred thousand cells were plated into individual wells of flat-bottom 96-well plates in RPMI-1640-10% FCS medium. The invention compounds were then added to the wells at varying concentrations and the cells incubated for 1-2 hours at 37° C.
Following this pre-incubation a mixture of Concanavalin A (ConA) and Interleukin-2 (IL2) was added to the experimental wells at a final concentration of (0.25 ug/ml ConA)/(20 ng/ml IL2). Appropriate positive and negative controls were set up on each plate. Each variable was set up in quadruplicate.
The plates were incubated for 4 days at 37° C. in a humidified CO2 incubator. On day 4 the wells were pulsed with 1 μCi of tritiated thymidine(3H-TdR) and the plates incubated for an additional 4 hours. The plates were then harvested and the incorporation of 3H-TdR was determined in a liquid scintillation counter. From the CPM obtained from each experimental well an IC-50 for each inventive compound tested was determined. Therefore, a lower reported IC-50 value is indicative of greater inhibition of IL-2-induced proliferation of thymocytes. Table II illustrates IC-50 values (in μM) for inventive compounds inhibiting proliferation at very low concentrations of compound.

The test system of data set [4] is normal human bone marrow stromal cells (MSC). Nature of the data set: human bone marrow stromal cell (MSC) proliferation in response to PDGF BB and IL-1α. The format is cell-based. Conditions: Table III, PDGF BB 50 ng/ml and IL-1α 10 ng/ml. Here is the method:
This example illustrates the effects of inventive compounds nos. 1114, 1413, 1560, 1565, 1594, 2518, 2548R, 2548S and 3503 as effective inhibitors of normal human bone marrow stromal cells (MSC) proliferation in response to Platelet Derived Growth Factor BB (PDGF B) and IL-1α (50 and 10 ng/ml, respectively).
MSC were obtained and malintained in exponential growth, released from a growth plate with trypsin and plated into 96 well tissue culture plates in the presence of Fibroblast Growth Factor (FGFβ) for 48 hours. Growth media were removed and the cells were washed once with serum free media. The cells were then incubated 20-24 hours in serum free media.
After incubation, inventive compounds were added to the cells at the appropriate concentration and then the cells again incubated for 1 hour. PDGF B and IL-1α were added to the cells along with 3H-thymidine and the cells again incubated for an additional 24 hours.
After 24 hours of incubation, the cells were then harvested to assess incorporation of ^3 H-thymidine into DNA (proliferation). From each harvested cell culture, an IC-50 for each inventive compound tested was determined. Therefore, a lower reported IC-50 value is indicatilve of greater activity of the invention compounds in inhibiting MSC proliferation. Table III illustrates IC-50 values (in μM) for invention compounds inhibiting MSC proliferation at very low concentrations of compound.

For data set [5], the system named is murine splenocytes. Nature of the data set: murine splenocyte proliferation co-stimulated by anti-mu and IL-4 (FIG. 11). The format is cell-based. Conditions: Mus musculus, anti-mu / IL-4 12.5 ng/ml. Here is the method: This example illustrates inhibitive effects of compounds nos. 1439, 1553S, 1560 and 1565 on murine splenocyte proliferation co-stimulated by anti-mu ([…]) and interleukin-4 (IL-4, 12.5 ng/ml). This in vitro assay, described above, is indicative of immune-suppressive/autoimmune treatment assay emphasizing humoral or B cell immune response. This assays are a predictive model for treatment or prevention of autoimmune diseases, such as diabetes, lupus, arthritis, and the like. The assay measures immunosuppressive activity of a drug at the B cell level. Spleens from adult mice contain immature B cells that express surface IgM. Cross-linking the surface IgM with an anti-mu antibody results in B cell proliferation. Additionally, this activation results in an increased expression of interleukin-4 receptors(IL-4R) on the surface of such cells. IL-4 acts as a growth factor for B cells and will increase the amount of proliferation induced by anti-mu.
A mixture of anti-mu and murine IL-4 is added to murine splenocytes to cause their proliferation. Mice spleens are obtained from adult mice and a single cell suspension is prepared in RPMI 1640 medium supplemented with 10% FCS. Cells (200,000) are plated into flat-bottomed wells and pre-incubated for 1-2 hours with various concentrations of inventive compound or PBS if it is a control. A mixture of anti-mu and murine is added to the wells at a final concentration of 5 μg/ml anti-mu and 12.5 ng/ml IL-4 and plates are incubated for three days. Proliferation is determined on the third day with a pulse of tritiated thymidine. The IC50 concentration of a particular drug is the concentration of drug that results in a 50% inhibition of the proliferation obtained from the positive control.

For data set [6], the system named is hair follicles / skin of nu/nu (nude) mice. The data set can be described thus: hair growth stimulation in nude mice, topical, skin biopsies. The format is in vivo. The text has this: This example illustrates the effects of inventive compound no. 1541 as hair growth stimulant in nude mice. In a procedure similar to that used in a commercial model for predicting human hair-growing ability of minoxidil, nu/nu (nude) mice were painted twice daily for 16 days on the right flank with compound no. 1541 using sterile applicators. Researches handled the mice under a laminar flow hood with applicator, wearing face mask and sterile gloves.
After 16 days, one mouse was sacrificed by cervical dislocation and skin biopsies taken from the treated areas of the shoulder/flank and the non-treated area of the dorsal pelvis (rump). Specimens were placed in 10% buffered formalin solution.
Six weeks following treatment, a second mouse was euthanatized and biopsied the same as previous mouse after 16 days.

On to `Cn1cnc2c1c(=O)n(CCCCCCC1CO1)c(=O)n2C` (racemic) [Compound 1553, 1-(7,8-Oxidooctyl)-3,7-dimethylxanthine], for which the pIC50 was 4.54 in data set [1] (FIGS. 7D and 7E); 4.35 in data set [2].
`O=C1c2ccccc2C(=O)N1CCCCCCCC1CO1` (centres unmarked) [Compound 1105, N-(8,9-Oxidononyl) phthalimide] had a negative logarithm of the IC50 (pIC50) in data set [3] of 5.07.
`O=C1Cc2ccccc2C(=O)N1CCCCCCCCCC1CO1` (centres unmarked) [Compound 1114, N-(10,11-Oxidoundecyl) homophthalimide]: the pIC50 is 5.00 in data set [3] and 5.29 in data set [4].
As to `Cn1c(=O)n(CCCCC2CO2)c(=O)c2c1ncn2COC(=O)C(C)(C)C` (centres unmarked) [Compound 1410], the values for the pIC50 in data set [1] (FIG. 7A), in data set [1] (FIG. 7B) and in data set [2] were 4.17, 4.21 and 4.26, respectively.
Regarding `Cn1c(=O)n(CCCCCCCCCC2CO2)c(=O)c2[nH]cnc21` (centres unmarked) [Compound 1413, 1-(11,10-Oxidoundecyl)-3-methylxanthine], the pIC50 in data set [3] is 5.11; in data set [4], 5.43.
Consider `Cn1c(=O)n(CCCCC2CO2)c(=O)c2[nH]cnc21` (centres unmarked) [Compound 1439, 1-(5,6-Oxidohexyl)-3-methylxanthine], for which the values for the pIC50 in data set [3], in data set [1] (FIG. 7C) and in data set [5] were 5.10, over 4.60 and 4.51, respectively.
With `C=CCCCCn1c(=O)c2c(ncn2C)n(C)c1=O` [Compound 1539, 1-(5-Hexenyl)-3,7-dimethylxanthine], the pIC50 in data set [4] is 4.74.
On to `Cn1cnc2c1c(=O)n(CCCCC1CO1)c(=O)n2C` (centres unmarked) [Compound 1541, 1-(5,6-Oxidohexyl)-3,7-dimethylxanthine], for which the pIC50 in data set [1] (FIG. 7C) is 4.15. In addition, in data set [1] (FIGS. 7D and 7E), the pIC50 was 4.24. Further, the “skin histology findings (inflammatory cells)” value in data set [6] (after 16 days, also a few in untreated areas) was “mild accumulations of mixed inflammatory cells in the dermis”. In addition, in data set [6] (six weeks following treatment), the “hair/follicle findings six weeks following treatment” value was “confirmed hair loss; also recorded: slightly straighter superficial portions of follicles with less curling of hair shafts; also recorded: the subcutis contained active anagen bulbs located deeply in the subcutis” and the “skin histology findings (acanthosis)” value was “slightly more acanthosis (epidermal hyperplasta) in treated areas”. Besides, the “hair follicles and hair shafts in treated areas” value in data set [6] (topical, twice daily, 16 days, biopsy at 16 days) is given as “follicles in the treated areas had hair shafts which sometimes exit to the surface; also recorded: more normal appearing hair follicles than the untreated sections; also recorded: numerous hair shafts were seen exiting follicles in the treated sections”.
Take `Cn1cnc2c1c(=O)n(CCCCCCCCCC1CO1)c(=O)n2C` (centres unmarked) [Compound 1594]: the values for the pIC50 in data set [3] and in data set [4] were 5.07 and 4.85, respectively.
Take `C[C@@H](CCCn1c(=O)c2c(ncn2C)n(C)c1=O)CCC1OC1(C)C` (stereo partly drawn) [Compound 2548R, 1-(4-(R)-Methyl-7,8-oxido-8-methylnonyl)-3,7-dimethylxanthine]: the pIC50 in data set [3] is 5.12; in data set [4] it was 5.06; in data set [1] (FIGS. 7D and 7E) it was 4.80.
Turning to `C[C@H](CCCn1c(=O)c2c(ncn2C)n(C)c1=O)CCC1OC1(C)C` (stereo partly drawn) [Compound 2548S, 1-(4-(S)-Methyl-7,8-oxide-8-methylnonyl)-3,7-dimethylxanthine], the pIC50 in data set [3] is 5.34; in data set [4], 5.23; in data set [1] (FIGS. 7D and 7E), 4.68.
Consider `Cn1cnc2c1c(=O)n(CCCCCCCCCCCC1CO1)c(=O)n2C` (centres unmarked) [Compound 2562, 1-(12,13-Oxidotridecyl)-3,7-dimethylxanthine], for which the pIC50 in data set [3] is 5.51; in data set [1] (FIGS. 7D and 7E), 4.70.
Consider `Cn1cnc2c1c(=O)n(CCCCCCCCCCCCC1CO1)c(=O)n2C` (centres unmarked) [Compound 3503, 1-(13,14-Oxidotetradecyl)-3,7-dimethylxanthine], for which the negative-log IC50 (pIC50) in data set [3] is 5.00; in data set [4], 4.85.

Broadly, the pIC50 is −log10 of the IC50, conventionally taken in molar units. A lower pIC50 goes with a high IC50.
